pIC50: −log10 of the molar value. Counter-ions that a name gives are not always drawn. Blank lines part the entries; values can stand above or below the compound they belong to.
Experiments:
[1] = molecular target: hERG potassium ion channels (Homo sapiens (Human), UniProt Q12809); assay: Experiment 4: hERG potassium ion channel inhibition, automated patch clamp (Qpatch), CHO-hERG cells; type: cell-based; conditions: highest test concentration 40 μM
Experimental: Experiment 4: hERG Potassium Ion Channel Inhibition Assay
Experimental purpose: To test the effects of the test examples on hERG potassium ion channels using an automated patch clamp method.
4.1.1 CHO-hERG cells were cultured in a 175 cm^2 culture flask. When the cell density grew from 60% to 80%, the culture medium was removed. The cells were washed once with 7 mL of PBS (Phosphate Buffered Saline), and then 3 mL of Detachin cell dissociation reagent was added thereto for digestion.
4.1.2 After the digestion was completed, 7 mL of culture medium was added thereto for neutralization, then the mixture was centrifuged, the supernatant was aspirated, and then 5 mL of culture medium was added thereto for resuspension to ensure a cell density of 2×10^6/mL to 5×10^6/ML.
The single-cell high-resistance sealing and whole-cell modeling formation processes were all automatically completed by the Qpatch instrument of the Shanghai Institute of Materia Medica, Chinese Academy of Sciences. After obtaining the whole-cell recording modeling, the cells were clamped at −80 mV, and before a 5-second +40 mV depolarizing stimulus was given, a 50-millisecond −50 mV prepulse was first given, then the voltage was repolarized to −50 mV and holden for 5 seconds, and finally returned to −80 mV. This voltage stimulus was applied every 15 seconds, recorded for 2 minutes, and then the extracellular fluid was recorded for 5 minutes, and then the administration process was initiated, with compound concentrations starting at the lowest test concentration. The voltage stimulus was given for 2.5 minutes for each test concentration, and after all concentrations had been continuously given, 3 μM the positive control compound, Cisapride, was given. At least 3 cells were tested per concentration (n≥3).
4.4.1 The compound stock solution was diluted with DMSO, and 20 μL of DMSO solution was added with 10 μL of the compound stock solution, and serially diluted 3-fold to 6 DMSO concentrations.
4.4.2 4 μL of 6 DMSO concentrations of compounds were taken respectively and added to 396 μL of extracellular fluid, and the mixture was diluted 100-fold to 6 intermediate concentrations, then 80 μL of 6 intermediate concentrations of compounds was taken and added to 320 μL of extracellular fluid, and the mixture was diluted 5-fold to the final test concentration.
4.4.3 The highest test concentration was 40 μM, and the concentrations were respectively 40, 13.3, 4.4, 1.48, 0.494, and 0.165 μM for a total of six concentrations.
4.4.5 The preparation of the compound was completed by the Bravo instrument throughout the dilution process.
Experimental data were analyzed by GraphPad Prism 5.0 software.

NCI-H1417 cells = assay: Experiment 2: inhibition of NCI-H1417 cell proliferation (CellTiter-Glo, 10 days); type: cell-based; conditions: Homo sapiens, 240 h, 10 days incubation
Experimental: Experiment 2: Evaluation of Inhibitory Activity on NCI-H1417 Cell Proliferation
Experimental purpose: To test the inhibitory activity of test compounds on NCI-H1417 cell proliferation.
Experimental materials: RPMI 1640 medium, fetal bovine serum, Promega CellTiter-Glo reagent. The NCI-H1417 cell line was purchased from ATCC. Envision multilabel plate reader (PerkinElmer).
Experimental method: The compounds were dissolved to 10 mM and 5-fold diluted with DMSO in the compound plates, starting with a concentration of 2 mM. 3-fold serial dilution was performed with Bravo to 10 concentrations. Then 250 nL of the compound solution was transferred to the upper and lower double duplicate wells of a blank 384 cell plate with Echo. To each well containing the transferred 250 nL of DMSO/compound was added a cell suspension of 1000 cells/50 μL per well, and the compound was diluted 200-fold, i.e., resulting in an initial working concentration of 10 μM. The cell plate was incubated in a carbon dioxide incubator for 10 days. To the cell plate was added 25 μL of Promega CellTiter-Glo reagent per well and the mixture was shaken for 10 minutes at room temperature to stabilize the luminescence signal. Readings were performed on a PerkinElmer Envision multilabel plate reader.
Data analysis: Raw data were converted into inhibition rate using the formula: (Max−Ratio)/(Max−Min)*100%. The IC50 values could then be derived from four-parameter curve fitting. (derived from 205 mode in XLFIT5, iDBS)
The compounds were tested for inhibitory activity of compounds on NCI-H1417 cell proliferation, and the results are shown in Table 3.

human LSD1 = human LSD1 (Homo sapiens (Human), UniProt O60341); assay: Experiment 1B: in vitro LSD1 enzyme activity, enzyme-coupled fluorescence (HRP/Amplex Red), H3(1-21)K4me2 peptide 10 μM (Reaction Biology); type: biochemical; conditions: histone H3(1-21)K4me2 peptide 10 μM
Experimental: Experiment 1B: Evaluation of Enzyme Activity
Testing unit: Reaction Biology Corp., USA.
The purpose of the assay was to test the in vitro inhibitory activity of the compounds against LSD1. The enzyme used in the assay was human LSD1, and the standard substrate was histone H3(1-21)K4me2 peptide (10 μM). The activity of the compounds was determined by the enzyme-coupling fluorescent method by the combined detection of H2O2 generated after the reaction of LSD1 by horseradish peroxidase (HRP) and the fluorescent reagent Amplex Red. Starting from 10 μM, the compounds were 3-fold diluted to detect the IC50 values of the compounds at 10 concentrations. The enzyme and substrate were incubated for 30 minutes before the compound was added to the substrate to start the reaction. Fluorescence detector: EnVision, excitation wavelength: Ex/Em=535/590 nM.

[2] = Experiment 3: pharmacokinetic evaluation in CD-1 mice (IV and oral); type: in vivo; conditions: mouse, plasma, male CD-1 mice
Experimental: Experiment 3: Pharmacokinetic Evaluation of Compounds
Experimental purpose: To test the pharmacokinetics of compounds in CD-1 mice in vivo
CD-1 mice (male/female, 7 to 9 weeks old, Shanghai SLAC)
The pharmacokinetic characteristics of the compounds in rodents after intravenous injection and oral administration were tested according to the standard protocol. In the experiment, the candidate compound was formulated into clear solutions, and a single intravenous injection and oral administration were given to mice. The vehicle for intravenous injection and oral administration was a mixed vehicle composed of 10% dimethyl sulfoxide and 90% hydroxypropyl β-cyclodextrin with a content of 10%. In this project, four male/female CD-1 mice were used. Two mice were injected intravenously at a dose of 1 mg/kg, and plasma samples were collected at 0.083, 0.25, 0.5, 1, 2, 4, 8, and 24 hours after administration; the other two were administered orally by gavage at a dose of 2 mg/kg, and plasma samples were collected at 0.25, 0.5, 1, 2, 4, 8, and 24 hours after administration. The samples were centrifuged at 3200 g for 10 minutes at 4° C., and plasma samples were obtained by separating the supernatant. A methanol solution containing internal standard with 20 times the volume of the sample was added thereto to precipitate the protein, and the mixture was centrifuged at 12000 g for 15 minutes at 4° C. 50 μL of the supernatant was taken and transferred to a 96-well plate and centrifuged again. The supernatant was taken for sampling. The plasma concentration was quantitatively analyzed using LC-MS/MS analysis method, and pharmacokinetic parameters, such as peak concentration (Cmax), clearance rate (CL), half-life (T1/2), volume of distribution at steady state (Vdss), area under drug-time curve (AUC0-last), bioavailability (F).

Chain of hERG potassium ion channels (Q12809 whole entry): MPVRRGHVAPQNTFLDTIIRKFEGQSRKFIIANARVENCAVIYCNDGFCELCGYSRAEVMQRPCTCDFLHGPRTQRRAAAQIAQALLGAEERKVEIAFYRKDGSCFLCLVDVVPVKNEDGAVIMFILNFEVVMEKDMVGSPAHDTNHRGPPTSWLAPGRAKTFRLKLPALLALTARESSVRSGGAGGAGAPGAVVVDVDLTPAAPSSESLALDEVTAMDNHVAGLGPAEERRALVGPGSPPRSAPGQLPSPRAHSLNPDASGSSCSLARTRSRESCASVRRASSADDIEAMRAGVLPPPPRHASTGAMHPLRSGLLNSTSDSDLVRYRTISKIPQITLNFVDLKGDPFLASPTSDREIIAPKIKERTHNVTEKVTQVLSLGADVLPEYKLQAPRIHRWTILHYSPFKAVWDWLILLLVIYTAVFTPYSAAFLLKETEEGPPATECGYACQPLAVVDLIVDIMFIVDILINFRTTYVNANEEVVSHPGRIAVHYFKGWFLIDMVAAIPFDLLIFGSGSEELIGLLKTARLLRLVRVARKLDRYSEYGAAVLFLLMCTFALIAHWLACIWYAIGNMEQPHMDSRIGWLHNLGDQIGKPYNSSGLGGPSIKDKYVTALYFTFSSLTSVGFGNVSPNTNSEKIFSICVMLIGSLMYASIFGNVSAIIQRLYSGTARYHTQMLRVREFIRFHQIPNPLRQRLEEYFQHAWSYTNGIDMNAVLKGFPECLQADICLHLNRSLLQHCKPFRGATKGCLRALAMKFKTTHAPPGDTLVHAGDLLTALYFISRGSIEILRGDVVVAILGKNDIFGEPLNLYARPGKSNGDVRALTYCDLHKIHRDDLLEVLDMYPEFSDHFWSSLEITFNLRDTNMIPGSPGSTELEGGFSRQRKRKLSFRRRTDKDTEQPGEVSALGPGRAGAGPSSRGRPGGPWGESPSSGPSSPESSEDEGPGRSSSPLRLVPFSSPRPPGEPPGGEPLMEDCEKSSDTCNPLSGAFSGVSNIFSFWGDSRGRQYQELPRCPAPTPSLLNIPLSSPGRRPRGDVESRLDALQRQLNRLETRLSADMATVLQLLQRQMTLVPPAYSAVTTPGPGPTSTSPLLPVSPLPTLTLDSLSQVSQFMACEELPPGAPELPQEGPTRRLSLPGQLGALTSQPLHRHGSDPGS

SMILES: CC(C)(O)Cn1cc2cc(-c3sc(C(=O)N4CCC[C@@H](N)C4)cc3-c3ccc(C#N)c(F)c3)cnc2n1 [Compound 61]
pIC50 [1]: < 4.40

SMILES: N#Cc1ccc(-c2cc(C(=O)N3CCC[C@@H](N)C3)sc2-c2ccc3nncn3c2)cc1F [Compound 67]
pIC50 [1]: < 4.40

SMILES: N#Cc1ccc(-c2cc(C(=O)N3CCC[C@@H](N)C3)sc2-c2ccn3cnnc3c2)cc1F [Compound 76]
pIC50 [1]: < 4.40

SMILES: N#Cc1ccc(-c2cc(C(=O)N3CCC[C@@H](N)C3)sc2-c2ccc3nn(C4CCOC4)cc3c2)cc1F (stereo partly shown) [Hydrochloride of compound 72]
pIC50 (NCI-H1417 cells): 8.35
pIC50 (human LSD1): 8.07

SMILES: N#Cc1ccc(-c2cc(C(=O)N3CCC[C@@H](N)C3)sc2-c2ccc3nn(CC4(O)CCC4)cc3c2)cc1F [Hydrochloride of compound 79]
pIC50 (NCI-H1417 cells): 8.48
pIC50 (human LSD1): 7.87

SMILES: COC1CC(n2cc3cc(-c4sc(C(=O)N5CCC[C@@H](N)C5)cc4-c4ccc(C#N)c(F)c4)ccc3n2)C1 (stereo partly shown) [Hydrochloride of compound 80]
pIC50 (NCI-H1417 cells): 7.79
pIC50 (human LSD1): 7.69
clearance ([2]; IV 1 mg/kg, read-out: Clearance rate CL): 33.7 mL/min/kg
half-life ([2]; IV 1 mg/kg, read-out: Half life T1/2 (IV, h) (converted)): 1.93 h
Vd ([2]; IV 1 mg/kg, read-out: Volume of distribution at steady state Vdss): 4.89 L/kg
bioavailability ([2]; PO 2 mg/kg vs IV 1 mg/kg, read-out: Bioavailability F (%)): 31.9%
AUC(0-t) ([2]; PO 2 mg/kg, read-out: Area under drug-time curve AUC0-last PO): 0.576 µM·h
Cmax ([2]; single dose, oral 2 mg/kg, read-out: Peak concentration Cmax): 109 nM

SMILES: N#Cc1ccc(-c2cc(C(=O)N3CCC[C@@H](N)C3)sc2-c2ccc(N3CCC(O)C3)cc2)cc1F (stereo partly shown) [Hydrochloride of compound 85]
pIC50 (NCI-H1417 cells): 8.63
pIC50 (human LSD1): 7.85

SMILES: N#Cc1ccc(-c2cc(C(=O)N3CCC[C@@H](N)C3)sc2-c2cc3nnn(CC4(O)CCC4)c3c(F)c2F)cc1F [Hydrochloride of compound 92]
pIC50 (NCI-H1417 cells): 9.37
pIC50 (human LSD1): 8.01

SMILES: N#Cc1ccc(-c2cc(C(=O)N3CCC[C@@H](N)C3)sc2-c2cc3cn(CC4(O)CC4)nc3cc2F)cc1F [Hydrochloride of compound 93]
pIC50 (NCI-H1417 cells): 8.39
pIC50 (human LSD1): 7.74

SMILES: N#Cc1ccc(-c2cc(C(=O)N3CCC[C@@H](N)C3)sc2-c2cc3cn(CC4(O)CCC4)nc3cc2F)cc1F [Hydrochloride of compound 95]
pIC50 (NCI-H1417 cells): 8.60
pIC50 (human LSD1): 8.00

SMILES: N#Cc1ccc(-c2cc(C(=O)N3CCC[C@@H](N)C3)sc2-c2ccc(N3CC[C@H](O)C3)c(F)c2)cc1F [Hydrochloride of compound 96]
pIC50 (NCI-H1417 cells): 8.32
pIC50 (human LSD1): 7.69

SMILES: N#Cc1ccc(-c2cc(C(=O)N3CCC[C@@H](N)C3)sc2-c2cc3nnn([C@H]4COCC[C@@H]4O)c3c(F)c2F)cc1F [Hydrochloride of compound 97]
pIC50 (NCI-H1417 cells): 8.02
pIC50 (human LSD1): 7.60

Other lines, results leading:

pIC50 (NCI-H1417 cells): 9.43
pIC50 (human LSD1): 7.85
SMILES: N#Cc1ccc(-c2cc(C(=O)N3CCCNCC3)sc2-c2cc3nnn(CC4(O)CCC4)c3c(F)c2F)cc1F [Hydrochloride of compound 100]

pIC50 (NCI-H1417 cells): 8.47
pIC50 (human LSD1): 7.54
SMILES: N#Cc1ccc(-c2cc(C(=O)N3CCC[C@@H](N)C3)sc2-c2ccc(N3CC[C@@H](O)C3)c(F)c2)cc1F [Hydrochloride of compound 101]

pIC50 (NCI-H1417 cells): 7.50
pIC50 (human LSD1): 7.24
SMILES: CC(C)(CO)n1cc2cc(-c3sc(C(=O)N4CCCNCC4)cc3-c3ccc(C#N)c(F)c3)ccc2n1 [Hydrochloride of compound 102]

pIC50 (NCI-H1417 cells): 7.86
pIC50 (human LSD1): 7.67
SMILES: CC(C)(CO)n1nnc2cc(-c3sc(C(=O)N4CCCNCC4)cc3-c3ccc(C#N)c(F)c3)c(F)c(F)c21 [Hydrochloride of compound 103]

pIC50 (NCI-H1417 cells): 8.32
pIC50 (human LSD1): 7.78
SMILES: CN[C@@H]1CCCN(C(=O)c2cc(-c3ccc(C#N)c(F)c3)c(-c3ccc4nn(C(C)(C)CO)cc4c3)s2)C1 [Hydrochloride of compound 104]

pIC50 (NCI-H1417 cells): 8.48
pIC50 (human LSD1): 7.82
SMILES: N#Cc1ccc(-c2cc(C(=O)N3CCC[C@@H](N)C3)sc2-c2ccc(N3CC[C@H](O)C3)cc2)cc1F [Hydrochloride of compound 107]

pIC50 (NCI-H1417 cells): 8.69
pIC50 (human LSD1): 7.97
SMILES: CN[C@@H]1CCCN(C(=O)c2cc(-c3ccc(C#N)c(F)c3)c(-c3ccc(N4CC[C@@H](O)C4)cc3)s2)C1 [Hydrochloride of compound 109]

pIC50 (NCI-H1417 cells): 8.46
pIC50 (human LSD1): 8.01
SMILES: N#Cc1ccc(-c2cc(C(=O)N3CCC[C@@H](N)C3)sc2-c2ccc(N3CC[C@@H](O)C3)cc2)cc1F [Hydrochloride of compound 110]

pIC50 (NCI-H1417 cells): 8.30
pIC50 (human LSD1): 8.23
SMILES: N#Cc1ccc(-c2cc(C(=O)N3CCC[C@@H](N)C3)sc2-c2ccc(N3CC[C@@H](O)C3)cc2F)cc1F [Hydrochloride of compound 112]

pIC50 (NCI-H1417 cells): 7.40
pIC50 (human LSD1): 7.72
SMILES: N#Cc1ccc(-c2cc(C(=O)N3CCCNCC3)sc2-c2ccc(N3CC[C@@H](O)C3)cc2)cc1F [Hydrochloride of compound 117]

pIC50 (NCI-H1417 cells): 7.50
pIC50 (human LSD1): 7.86
SMILES: CC1(O)CN(c2ccc(-c3sc(C(=O)N4CCC[C@@H](N)C4)cc3-c3ccc(C#N)c(F)c3)cc2)C1 [Hydrochloride of compound 118]

pIC50 (NCI-H1417 cells): 8.04
pIC50 (human LSD1): 7.75
SMILES: CC(C)(O)CNc1ccc(-c2sc(C(=O)N3CCC[C@@H](N)C3)cc2-c2ccc(C#N)c(F)c2)cc1F [Hydrochloride of compound 119]

pIC50 (NCI-H1417 cells): 7.76
pIC50 (human LSD1): 8.03
SMILES: N#Cc1ccc(-c2cc(C(=O)N3CCC[C@@H](N)C3)sc2-c2ccc(NCC3(O)CCC3)c(F)c2)cc1F [Hydrochloride of compound 120]

pIC50 (NCI-H1417 cells): 8.20
pIC50 (human LSD1): 7.57
SMILES: Cn1nc2ccc(-c3sc(C(=O)N4CCC[C@@H](N)C4)cc3-c3ccc(C#N)c(F)c3)cc2c1F [Hydrochloride of compound 123]

— patent publication US20240199571A1, “THIOPHENE COMPOUND AND APPLICATION THEREOF” (MEDSHINE DISCOVERY INC., priority 2021, published 2024)
